Source: patent US20040048260A1, “Transfection of nucleic acid” (priority 2002, published 2004)

Assays:
[1] = Stability of DOTAP coating on 96-well plates under complete medium, examined by microscope; format: physicochemical
Experimental: (§1) Standard 96-well plates were coated with 1,2 bis(oleoyloxy)-3-(trimethylammonio)propane (DOTAP; purchased from Avanti, Alabaster, Ala.), a cationic lipid. More specifically, 50-microliter aliquots of 2.5 nM, 5 nM, 10 nM, 40 nM, 60 nM, and 80 nM DOTAP methanolic solutions were added to the wells of six sets of the 96-well plates respectively. The plates were then dried overnight in a vacuum-drier and stored in a dessicator until use.
In one experiment, 100 microliters of a complete medium (i.e., RPMI medium containing 10% fetal calf serum, 50 units ml^−1 penicillin, and 50 micrograms ml^−1 streptomycin) was added to each well of the coated plates. The coated surfaces and the overlaying medium were then examined under a microscope at 6-hr intervals for 24 hr.

[2] = test system: fluorescent-labeled oligonucleotide; assay: Capture of fluorescent-labeled oligonucleotide by coated plates (fluorescent microscope); format: binding; details: 0.1 microgram oligonucleotide per well in 100 microliters complete medium
Experimental: as §1
In another experiment, 0.1 microgram of fluorescent-labeled oligonucleotide was added to each well of the coated plates containing 100 microliters of the above-mentioned medium. The plates were then observed under a fluorescent microscope. The fluorescence was detected only on the coated surfaces but not in the medium.

HeLa cells [3] = assay: Transfection of HeLa cells with EGFP plasmid on coated 96-well plates; format: cell-based; details: 24 hr
Text: The coated plates prepared in Example 1 were used to transfect HeLa cells with an expression plasmid encoding Enhanced Green Fluorescent Protein (EGFP; purchased from Clontech, Inc., Palo Alto, Calif.). […] Before transfection, 1×10^6 HeLa cells were harvested and resuspended in 5 milliliters of the complete medium described in Example 1. 1 microgram of the EGFP plasmid was mixed with the cells. The mixture was subsequently placed into the coated plates (about 5,000 cells per well). After the cells had grown on the plates for 24 hr, pictures were taken under a fluorescent microscope.
Standard 96-well plates were coated with polyethylenimine […], a cationic polymer. More specifically, PEI (MW 25,000 Daltons) was purchased from Sigma-Aldrich (St. Louis, Mo.) and dissolved in deionized water to reach a concentration of 10 mg/ml. Each PEI solution was passed through a 0.45-micrometer filter membrane. This filtrate was used as the PEI stock solution and stored at 4° C. To coat the plates, the stock solution was diluted with sterile deionized water to 20 microgram/ml and a 10-microliter aliquot was added to each well of 96-well plates. The plates were dried and stored in the manner as described in Example 1.
To conduct transfection, HeLa cells were mixed with the EGFP plasmid in the complete medium described in Example 1 and placed onto the PEI-coated plates. […]

HeLa cells [4] = assay: Transfection of HeLa cells with EGFP plasmid on glass slides tethered with DOTAP or PEI; format: cell-based; details: HeLa cells on glass slides printed with gelatin or chitosan and tethered coating, 24 hours
Experimental: Glass slides were tethered with DOTAP or PEI and used to transfect HeLa cells.
More specifically, borosilicate glass slides (VWR Scientific, Media, Pa.) were cleaned with Linbro 7× detergent (ICN Biomedicals, Inc., Aurora, Ohio), diluted 1:3 (v/v) in deionized water, and baked at 450° C. for 4 hr. The slides were then printed with gelatin or chitosan by microcontact printing using polydimethylsiloxane (PDMS; Sylgard 184; Dow Corning, Midland, Mich.) elastomer stamps. See Kam L. et al., J Biomed Mater Res. 55: 487-495 (2001). One milliliter of 10 nM DOTAP solution and 20 microgram/ml PEI solutions were respectively overlaid onto two set of slides for one minute. The slides were then briefly rinsed with Dulbecco's modified Eagle's medium (DMEM; Gibco BRL, Great Island, N.Y.) before use.
HeLa cells were mixed with the EGFP plasmid and seeded onto slides that were placed in 100 mm cell culture dishes containing the above-mentioned complete medium.

SMILES: CCCCCCCC/C=C\CCCCCCCC(=O)OCC(C[N+](C)(C)C)OC(=O)CCCCCCC/C=C\CCCCCCCC (stereo not drawn) [DOTAP, 1,2 bis(oleoyloxy)-3-(trimethylammonio)propane]
- liposome-like particles on the coated surfaces or in the medium ([1]; complete medium, 24 hr, all plates): no liposome-like particles were found
- change of coated surfaces under complete medium ([1]; plates coated with 2.5-80 nM DOTAP solutions, examined at 6-hr intervals for 24 hr): no difference
- capture of nucleic acid (location of fluorescence) [2]: effectively capture nucleic acid
- cell shape / spreading on the coated plates (HeLa cells [3]; HeLa cells, microscopic views): spread unexpectedly well
- cells expressing GFP / transfected (of total HeLa cells) (HeLa cells [3]; coated 96-well plates, fluorescent microscope, PEI density greater than 0.3 microgram/cm^2): more than 80%
- cells found to express GFP (HeLa cells [4]): 80%
